Patent publication US20230365582A1, “NOVEL COMPOUNDS HAVING INHIBITORY ACTIVITY ON PROSTAGLANDIN E2 RECEPTOR AND USES THEREOF” (KANAPH THERAPEUTICS INC., priority 2020, published 2023)

What was measured:
hEP2 = biological target: T1, hEP2 (Homo sapiens, UniProt P43116); assay: hEP2 cAMP assay; assay type: cell-based; settings: HEK293 cells overexpressing hEP2; PGE2 agonist 400 pM; graded per Table 21; read-out: IC50 (nM) EP2 cAMP
T1 construct: expressed in transfected cells; host or cells: HEK293
Method in brief: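 HEK293 cells overexpressing hEP2, serum-starved 4 h, then 1,000 cells/well treated with compound (10 μM–0.001 nM) plus 400 pM PGE2 (about EC50-80) in HBSS buffer with 0.5 mM IBMX for 12 min at room temperature. cAMP measured by TR-FRET (665/615 nm) as % of DMSO control; IC50 from 4-parameter fit, median of repeats.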

hEP4 = biological target: T2, hEP4 (Homo sapiens, UniProt P35408); assay: hEP4 cAMP assay; assay type: cell-based; settings: HEK293 cells overexpressing hEP4; PGE2 agonist 20 nM; graded per Table 21; read-out: IC50 (nM) EP4 cAMP
T2 construct: expressed in transfected cells; host or cells: HEK293
Method in brief: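 HEK293 cells overexpressing hEP4, starved 4 h, were treated with compound (10 μM-0.001 nM) plus 20 nM PGE2 (EC50-80) in HBSS buffer with 0.5 mM IBMX for 18.5 min at room temperature. cAMP was read by TR-FRET (665/615 nm) as % of DMSO control; IC50 from 4-parameter fit, median of multiple experiments.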

T2 sequence (P35408 whole entry): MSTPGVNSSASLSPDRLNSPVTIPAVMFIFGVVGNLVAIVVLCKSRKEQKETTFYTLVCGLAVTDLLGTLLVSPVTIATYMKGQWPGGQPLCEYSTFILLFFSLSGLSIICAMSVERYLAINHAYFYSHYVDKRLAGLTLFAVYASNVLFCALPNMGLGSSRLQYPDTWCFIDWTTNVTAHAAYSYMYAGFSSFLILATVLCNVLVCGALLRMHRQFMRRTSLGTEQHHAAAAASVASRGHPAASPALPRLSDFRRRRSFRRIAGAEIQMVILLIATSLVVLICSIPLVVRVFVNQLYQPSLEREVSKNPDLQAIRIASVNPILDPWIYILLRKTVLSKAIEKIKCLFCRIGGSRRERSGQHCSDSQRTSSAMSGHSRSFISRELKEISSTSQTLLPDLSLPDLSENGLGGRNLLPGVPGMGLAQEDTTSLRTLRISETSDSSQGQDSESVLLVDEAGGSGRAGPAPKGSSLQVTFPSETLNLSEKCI
T1 sequence (P43116 whole entry): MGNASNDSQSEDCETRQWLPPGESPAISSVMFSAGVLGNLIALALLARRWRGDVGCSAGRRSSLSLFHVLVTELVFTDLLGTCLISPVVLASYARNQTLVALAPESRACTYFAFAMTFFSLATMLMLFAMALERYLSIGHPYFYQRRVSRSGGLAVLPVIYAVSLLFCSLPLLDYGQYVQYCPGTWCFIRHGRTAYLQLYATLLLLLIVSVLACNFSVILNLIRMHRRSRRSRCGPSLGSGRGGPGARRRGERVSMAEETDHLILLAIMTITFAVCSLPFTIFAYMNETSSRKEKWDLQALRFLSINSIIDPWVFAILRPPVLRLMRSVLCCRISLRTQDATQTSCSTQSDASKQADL

With `O=C(NC1CC2(C1)CC(C(=O)O)C2)c1csc2ccn(CCc3ccc(-c4ccccc4)cc3)c12` (centres unmarked) [Example 91, 6-(4-(2-([1,1′-biphenyl]-4-yl)ethyl)-4H-thieno[3,2-b]pyrrole-3-carboxamido)spiro[3.3]heptane-2-carboxylic acid] the IC50 (hEP2) was > 10000 nM and the IC50 (hEP4) was > 10000 nM.

For `Cc1sc(C)c(C(=O)NC2CC3(C2)CC(C(=O)O)C3)c1Cc1ccc(N2CCOCC2)cc1` (centres unmarked) [Example 9, 6-(2,5-dimethyl-4-(4-morpholinobenzyl)thiophene-3-carboxamido)spiro[3.3]heptane-2-carboxylic acid], the IC50 (hEP2) was > 10000 nM and the IC50 (hEP4) was > 10000 nM.

`COc1cc(-c2ccc(Cc3c(C)sc(C)c3C(=O)NC3CC4(C3)CC(C(=O)O)C4)cc2)cc(N2CCC2=O)c1` (centres unmarked) [Example 62, 6-(4-((3′-methoxy-5′-(2-oxoazetidin-1-yl)-[1,1′-biphenyl]-4-yl)methyl)-2,5-dimethylthiophene-3-carboxamido)spiro[3.3]heptane-2-carboxylic acid] was tested, and the IC50 (hEP2) was 500 to 5000 nM and the IC50 (hEP4) was < 500 nM.

In the case of `Cc1sc(C)c(C(=O)NC2CC3(C2)CC(C(=O)O)C3)c1Cc1ccc(-c2ccccc2)cc1` (centres unmarked) [Example 1, 6-(4-([1,1′-biphenyl]-4-ylmethyl)-2,5-dimethylthiophene-3-carboxamido)spiro[3.3]heptane-2-carboxylic acid], the IC50 (hEP2) is reported as 500 to 5000 nM and the IC50 (hEP4) is reported as < 500 nM.

In the case of `COc1cc(CNC(=O)OC(C)(C)C)cc(-c2ccc(Cc3c(C)sc(C)c3C(=O)NC3CC4(C3)CC(C(=O)O)C4)cc2)c1` (centres unmarked) [Example 59, 6-(4-((3′-(((tert-butoxycarbonyl)amino)methyl)-5′-methoxy-[1,1′-biphenyl]-4-yl)methyl)-2,5-dimethylthiophene-3-carboxamido)spiro[3.3]heptane-2-carboxylic acid], the IC50 (hEP2) is reported as > 10000 nM and the IC50 (hEP4) is reported as 500 to 5000 nM.

`Cc1cc(C(F)(F)F)n(-c2ccc(Cn3ccc4scc(C(=O)NC5CC6(C5)CC(C(=O)O)C6)c43)cc2)n1` (centres unmarked) [Example 112, 6-(4-(4-(3-methyl-5-(trifluoromethyl)-IH-pyrazol-1-yl)benzyl)-4H-thieno[3,2-b]pyrrole-3-carboxamido)spiro[3.3]heptane-2-carboxylic acid] was tested, and the IC50 (hEP2) was > 10000 nM and the IC50 (hEP4) was 500 to 5000 nM.

`Cc1sc(C)c(C(=O)NC2CC3(C2)CC(C(=O)O)C3)c1Cc1ccc(C2CCNCC2)cc1` (centres unmarked) [Example 68, 6-(2,5-dimethyl-4-(4-(piperidin-4-yl)benzyl)thiophene-3-carboxamido)spiro[3.3]heptane-2-carboxylic acid] was tested, and the IC50 (hEP2) was > 10000 nM and the IC50 (hEP4) was > 10000 nM.

With `Cc1sc(C)c(C(=O)NC2CC3(C2)CC(C(=O)O)C3)c1Cc1ccc(-c2ccc(C(=O)OC(C)(C)C)cc2)cc1` (centres unmarked) [Example 36, 6-(4-((4′-(tert-butoxycarbonyl)-[1,1′-biphenyl]-4-yl)methyl)-2,5-dimethylthiophene-3-carboxamido)spiro[3.3]heptane-2-carboxylic acid] the IC50 (hEP2) was 5000 to 10000 nM and the IC50 (hEP4) was < 500 nM.

`O=C(NC1CC2(C1)CC(C(=O)O)C2)c1csc2ccn(Cc3ccc(-c4ccccn4)cc3)c12` (centres unmarked) [Example 104, 6-(4-(4-(pyridin-2-yl)benzyl)-4H-thieno[3,2-b]pyrrole-3-carboxamido)spiro[3.3]heptane-2-carboxylic acid] was tested, and the IC50 (hEP2) was 5000 to 10000 nM and the IC50 (hEP4) was < 500 nM.

`Cc1sc(C)c(C(=O)NC2CC3(C2)CC(C(=O)O)C3)c1Cc1ccc(-c2cccnc2)cc1` (centres unmarked) [Example 27, 6-(2,5-dimethyl-4-(4-(pyridin-3-yl)benzyl)thiophene-3-carboxamido)spiro[3.3]heptane-2-carboxylic acid] was tested, and the IC50 (hEP2) was > 10000 nM and the IC50 (hEP4) was 500 to 5000 nM.

`COc1cc(F)cc(-c2ccc(Cc3c(C)sc(C)c3C(=O)N[C@H]3CC4(C3)C[C@H](C(=O)O)C4)cc2)c1` (single isomer, unassigned) [Example 34a] gave an IC50 (hEP2) of 5000 to 10000 nM and an IC50 (hEP4) of 500 to 5000 nM.

For `Cc1sc(C)c(C(=O)NC2CC3(C2)CC(C(=O)O)C3)c1Cc1ccc(-c2cc(F)cc(CO)c2)cc1` (centres unmarked) [Example 60, 6-(4-((3′-fluoro-5′-(hydroxymethyl)-[1,1′-biphenyl]-4-yl)methyl)-2,5-dimethylthiophene-3-carboxamido)spiro[3.3]heptane-2-carboxylic acid], the IC50 (hEP2) was 5000 to 10000 nM and the IC50 (hEP4) was < 500 nM.

For `COc1cc(OC)cc(-c2ccc(Cc3c(C)sc(C)c3C(=O)NC3CC4(C3)CC(C(=O)O)C4)cc2)c1` (centres unmarked) [Example 53, 6-(4-((3′,5′-dimethoxy-[1,1′-biphenyl]-4-yl)methyl)-2,5-dimethylthiophene-3-carboxamido)spiro[3.3]heptane-2-carboxylic acid], the IC50 (hEP2) was 500 to 5000 nM and the IC50 (hEP4) was < 500 nM.

In the case of `COc1ccc(F)c(-c2ccc(Cc3c(C)sc(C)c3C(=O)NC3CC4(C3)CC(C(=O)O)C4)cc2)c1` (centres unmarked) [Example 47, 6-(4-((2′-fluoro-5′-methoxy-[1,1′-biphenyl]-4-yl)methyl)-2,5-dimethylthiophene-3-carboxamido)spiro[3.3]heptane-2-carboxylic acid], the IC50 (hEP2) is reported as > 10000 nM and the IC50 (hEP4) is reported as 500 to 5000 nM.

In the case of `COc1cc(CN)cc(-c2ccc(Cc3c(C)sc(C)c3C(=O)NC3CC4(C3)CC(C(=O)O)C4)cc2)c1` (centres unmarked) [Example 66, 6-(4-((3′-(aminomethyl)-5′-methoxy-[1,1′-biphenyl]-4-yl)methyl)-2,5-dimethylthiophene-3-carboxamido)spiro[3.3]heptane-2-carboxylic acid], the IC50 (hEP2) is reported as > 10000 nM and the IC50 (hEP4) is reported as 500 to 5000 nM.

`Cc1sc(C)c(C(=O)NC2CC3(C2)CC(C(=O)O)C3)c1Cc1ccc(C2CCCCC2)cc1` (centres unmarked) [Example 67, 6-(4-(4-cyclohexylbenzyl)-2,5-dimethylthiophene-3-carboxamido)spiro[3.3]heptane-2-carboxylic acid] was tested, and the IC50 (hEP2) was > 10000 nM and the IC50 (hEP4) was 5000 to 10000 nM.

For `O=C(NC1CC2(C1)CC(C(=O)O)C2)c1csc2ccn(CC#Cc3ccccc3)c12` (centres unmarked) [Example 98, 6-(2-4-(3-phenylprop-2-yn-1-yl)-4H-thieno[3,2-b]pyrrole-3-carboxamido)spiro[3.3]heptane-2-carboxylic acid], the IC50 (hEP2) was > 10000 nM and the IC50 (hEP4) was 500 to 5000 nM.

In the case of `Cc1sc(C)c(C(=O)NC2CC3(C2)CC(C(=O)O)C3)c1Cc1ccc(-c2cc(N)cc(F)c2)cc1` (centres unmarked) [Example 54, 6-(4-((3′-amino-5′-fluoro-[1,1′-biphenyl]-4-yl)methyl)-2,5-dimethylthiophene-3-carboxamido)spiro[3.3]heptane-2-carboxylic acid], the IC50 (hEP2) is reported as 500 to 5000 nM and the IC50 (hEP4) is reported as < 500 nM.

For `Cc1sc(C)c(C(=O)NC2CC3(C2)CC(C(=O)O)C3)c1Cc1ccc(Cl)cc1` (centres unmarked) [Example 23, 6-(4-(4-chlorobenzyl)-2,5-dimethylthiophene-3-carboxamido)spiro[3.3]heptane-2-carboxylic acid], the IC50 (hEP2) was > 10000 nM and the IC50 (hEP4) was > 10000 nM.

In the case of `Cc1sc(C)c(C(=O)NC2CC3(C2)CC(C(=O)O)C3)c1Cc1ccc(-c2ccccc2)c(N)c1` (centres unmarked) [Example 8, 6-(4-((2-amino-[1,1′-biphenyl]-4-yl)methyl)-2,5-dimethylthiophene-3-carboxamido)spiro [3.3]heptane-2-carboxylic acid], the IC50 (hEP2) is reported as > 10000 nM and the IC50 (hEP4) is reported as 500 to 5000 nM.

For `O=C(NC1CC2(C1)CC(C(=O)O)C2)c1csc2ccn(Cc3ccc(-c4cccnc4)cc3)c12` (centres unmarked) [Example 99, 6-(4-(4-(pyridin-3-yl)benzyl)-4H-thieno[3,2-b]pyrrole-3-carboxamido)spiro[3.3]heptane-2-carboxylic acid], the IC50 (hEP2) was > 10000 nM and the IC50 (hEP4) was < 500 nM.

With `COc1cncc(-c2ccc(Cn3ccc4scc(C(=O)NC5CC6(C5)CC(C(=O)O)C6)c43)cc2)c1` (centres unmarked) [Example 101, 6-(4-(4-(5-methoxypyridin-3-yl)benzyl)-4H-thieno[3,2-b]pyrrole-3-carboxamido)spiro[3.3]heptane-2-carboxylic acid] the IC50 (hEP2) was 500 to 5000 nM and the IC50 (hEP4) was < 500 nM.

In the case of `Cc1sc(C)c(C(=O)NC2CC3(C2)CC(C(=O)O)C3)c1Cc1ccc(Oc2ccccc2)cc1` (centres unmarked) [Example 5, 6-(2,5-dimethyl-4-(4-phenoxybenzyl)thiophene-3-carboxamido)spiro[3.3]heptane-2-carboxylic acid], the IC50 (hEP2) is reported as > 10000 nM and the IC50 (hEP4) is reported as 5000 to 10000 nM.

`O=C(NC1CC2(C1)CC(C(=O)O)C2)c1cscc1Cc1ccc(-c2ccccc2)cc1` (centres unmarked) [Example 13, 6-(4-([1,1′-biphenyl]-4-ylmethyl)thiophene-3-carboxamido)spiro[3.3]heptane-2-carboxylic acid] showed an IC50 (hEP2) of 500 to 5000 nM and an IC50 (hEP4) of 500 to 5000 nM.

In the case of `Cc1sc(C)c(C(=O)c2ccc(-c3ccccc3)cc2)c1C(=O)NC1CC2(C1)CC(C(=O)O)C2` (centres unmarked) [Example 10, 6-(4-([1,1′-biphenyl]-4-carbonyl)-2,5-dimethylthiophene-3-carboxamido)spiro[3.3]heptane-2-carboxylic acid], the IC50 (hEP2) is reported as > 10000 nM and the IC50 (hEP4) is reported as 500 to 5000 nM.

In the case of `O=C(N[C@H]1CC2(C1)C[C@H](C(=O)O)C2)c1csc2ccn(Cc3ccc(-c4ccccc4)cc3)c12` (single isomer, unassigned) [Example 79b], the IC50 (hEP2) is reported as < 500 nM and the IC50 (hEP4) is reported as < 500 nM.

`Cc1sc(C)c(C(=O)NC2CC3(C2)CC(C(=O)O)C3)c1Cc1ccc(-c2ccccc2)cc1F` (centres unmarked) [Example 7, 6-(4-((3-fluoro-[1,1′-biphenyl]-4-yl)methyl)-2,5-dimethylthiophene-3-carboxamido)spiro[3.3]heptane-2-carboxylic acid] was tested, and the IC50 (hEP2) was 500 to 5000 nM and the IC50 (hEP4) was < 500 nM.

Compound `O=C(NC1CC2(C1)CC(C(=O)O)C2)c1csc2ccn(Cc3ccc(C(F)(F)F)cc3)c12` (centres unmarked) [Example 90, 6-(4-(4-(trifluoromethyl)benzyl)-4H-thieno[3,2-b]pyrrole-3-carboxamido)spiro[3.3]heptane-2-carboxylic acid] has an IC50 (hEP2) of 500 to 5000 nM and an IC50 (hEP4) of 500 to 5000 nM.
